Test results as given in PubChem BioAssay (NCI).
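Results reflect a 48-hour exposure of cells in 96-well plates to compound at five concentrations. At the GI50, growth is halved. TGI: concentration producing complete growth inhibition.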

Tests used:
Test in all cases: growth of human tumour cells (NCI), 48 h
ACHN renal = tested on: ACHN renal
HCT-116 colon = tested on: HCT-116 colon
MCF7 breast = tested on: MCF7 breast
UACC-257 melanoma = tested on: UACC-257 melanoma
SK-MEL-5 melanoma = tested on: SK-MEL-5 melanoma
EKVX NSCLC = tested on: EKVX NSCLC
LOX IMVI melanoma = tested on: LOX IMVI melanoma
T-47D breast = tested on: T-47D breast
MDA-MB-435 = tested on: MDA-MB-435
SK-OV-3 ovarian = tested on: SK-OV-3 ovarian
HT29 colon = tested on: HT29 colon
UO-31 renal = tested on: UO-31 renal
NCI/ADR-RES ovarian = tested on: NCI/ADR-RES ovarian
U251 CNS = tested on: U251 CNS
MALME-3M melanoma = tested on: MALME-3M melanoma
MOLT-4 leukemia = tested on: MOLT-4 leukemia
NCI-H23 lung = tested on: NCI-H23 lung
COLO 205 colon = tested on: COLO 205 colon
TK-10 renal = tested on: TK-10 renal
NCI-H522 lung = tested on: NCI-H522 lung
BT-549 breast = tested on: BT-549 breast
A498 renal = tested on: A498 renal
HOP-92 NSCLC = tested on: HOP-92 NSCLC
UACC-62 melanoma = tested on: UACC-62 melanoma
HS 578T breast = tested on: HS 578T breast
SK-MEL-2 melanoma = tested on: SK-MEL-2 melanoma
K-562 leukemia = tested on: K-562 leukemia
OVCAR-4 ovarian = tested on: OVCAR-4 ovarian
SNB-75 CNS = tested on: SNB-75 CNS
OVCAR-5 ovarian = tested on: OVCAR-5 ovarian
SK-MEL-28 melanoma = tested on: SK-MEL-28 melanoma
MDA-MB-231 breast = tested on: MDA-MB-231 breast
786-0 renal = tested on: 786-0 renal
HOP-62 NSCLC = tested on: HOP-62 NSCLC
PC-3 prostate = tested on: PC-3 prostate
SF-268 CNS = tested on: SF-268 CNS
KM12 colon = tested on: KM12 colon
HCC-2998 colon = tested on: HCC-2998 colon
RXF 393 renal = tested on: RXF 393 renal
SN12C renal = tested on: SN12C renal
HL-60(TB) leukemia = tested on: HL-60(TB) leukemia
OVCAR-8 ovarian = tested on: OVCAR-8 ovarian
SF-295 CNS = tested on: SF-295 CNS
SF-539 CNS = tested on: SF-539 CNS
NCI-H460 lung = tested on: NCI-H460 lung
HCT-15 colon = tested on: HCT-15 colon
M14 melanoma = tested on: M14 melanoma
RPMI-8226 leukemia = tested on: RPMI-8226 leukemia
SW-620 colon = tested on: SW-620 colon
OVCAR-3 ovarian = tested on: OVCAR-3 ovarian
DU-145 prostate = tested on: DU-145 prostate
IGROV1 ovarian = tested on: IGROV1 ovarian
A549 NSCLC = tested on: A549 NSCLC
CCRF-CEM leukemia = tested on: CCRF-CEM leukemia
SNB-19 CNS = tested on: SNB-19 CNS
NCI-H226 lung = tested on: NCI-H226 lung

Compound: CC(=O)c1cc2c(c(O)c1C)C(=O)C(=O)c1c(O)cccc1-2
- GI50 (ACHN renal): 289 nM
- TGI (ACHN renal): 1120 nM
- GI50 (HCT-116 colon): 216 nM
- TGI (HCT-116 colon): 506 nM
- GI50 (MCF7 breast): 57.6 nM
- TGI (MCF7 breast): 134 nM
- GI50 (UACC-257 melanoma): 188 nM
- TGI (UACC-257 melanoma): 366 nM
- GI50 (SK-MEL-5 melanoma): 56.5 nM
- TGI (SK-MEL-5 melanoma): 105 nM
- GI50 (EKVX NSCLC): 673 nM
- TGI (EKVX NSCLC): 3360 nM
- GI50 (LOX IMVI melanoma): 53.9 nM
- TGI (LOX IMVI melanoma): 101 nM
- GI50 (T-47D breast): 554 nM
- TGI (T-47D breast): 3170 nM
- GI50 (MDA-MB-435): 56.3 nM
- TGI (MDA-MB-435): 107 nM
- GI50 (SK-OV-3 ovarian): 565 nM
- TGI (SK-OV-3 ovarian): 1120 nM
- GI50 (HT29 colon): 319 nM
- TGI (HT29 colon): 1490 nM
- GI50 (UO-31 renal): 247 nM
- TGI (UO-31 renal): 742 nM
- GI50 (NCI/ADR-RES ovarian): 360 nM
- TGI (NCI/ADR-RES ovarian): 1390 nM
- GI50 (U251 CNS): 247 nM
- TGI (U251 CNS): 659 nM
- GI50 (MALME-3M melanoma): 65.4 nM
- TGI (MALME-3M melanoma): 139 nM
- GI50 (MOLT-4 leukemia): 348 nM
- TGI (MOLT-4 leukemia): 1440 nM
- GI50 (NCI-H23 lung): 66.6 nM
- TGI (NCI-H23 lung): 154 nM
- GI50 (COLO 205 colon): 342 nM
- TGI (COLO 205 colon): 872 nM
- GI50 (TK-10 renal): 560 nM
- TGI (TK-10 renal): 1010 nM
- GI50 (NCI-H522 lung): 281 nM
- TGI (NCI-H522 lung): 888 nM
- GI50 (BT-549 breast): 140 nM
- TGI (BT-549 breast): 274 nM
- GI50 (A498 renal): 962 nM
- TGI (A498 renal): 2380 nM
- GI50 (HOP-92 NSCLC): 906 nM
- TGI (HOP-92 NSCLC): 1880 nM
- GI50 (UACC-62 melanoma): 164 nM
- TGI (UACC-62 melanoma): 354 nM
- GI50 (HS 578T breast): 248 nM
- TGI (HS 578T breast): 1300 nM
- GI50 (SK-MEL-2 melanoma): 272 nM
- TGI (SK-MEL-2 melanoma): 922 nM
- GI50 (K-562 leukemia): 281 nM
- TGI (K-562 leukemia): 1050 nM
- GI50 (OVCAR-4 ovarian): 199 nM
- TGI (OVCAR-4 ovarian): 636 nM
- GI50 (SNB-75 CNS): 153 nM
- TGI (SNB-75 CNS): 301 nM
- GI50 (OVCAR-5 ovarian): 526 nM
- TGI (OVCAR-5 ovarian): 1010 nM
- GI50 (SK-MEL-28 melanoma): 163 nM
- TGI (SK-MEL-28 melanoma): 365 nM
- GI50 (MDA-MB-231 breast): 277 nM
- TGI (MDA-MB-231 breast): 2260 nM
- GI50 (786-0 renal): 421 nM
- TGI (786-0 renal): 897 nM
- GI50 (HOP-62 NSCLC): 175 nM
- TGI (HOP-62 NSCLC): 365 nM
- GI50 (PC-3 prostate): 510 nM
- TGI (PC-3 prostate): 2030 nM
- GI50 (SF-268 CNS): 133 nM
- TGI (SF-268 CNS): 471 nM
- GI50 (KM12 colon): 411 nM
- TGI (KM12 colon): 1740 nM
- GI50 (HCC-2998 colon): 330 nM
- TGI (HCC-2998 colon): 776 nM
- GI50 (RXF 393 renal): 157 nM
- TGI (RXF 393 renal): 416 nM
- GI50 (SN12C renal): 59.2 nM
- TGI (SN12C renal): 117 nM
- GI50 (HL-60(TB) leukemia): 89.5 nM
- TGI (HL-60(TB) leukemia): 271 nM
- GI50 (OVCAR-8 ovarian): 308 nM
- TGI (OVCAR-8 ovarian): 936 nM
- GI50 (SF-295 CNS): 290 nM
- TGI (SF-295 CNS): 763 nM
- GI50 (SF-539 CNS): 150 nM
- TGI (SF-539 CNS): 285 nM
- GI50 (NCI-H460 lung): 460 nM
- TGI (NCI-H460 lung): 1090 nM
- GI50 (HCT-15 colon): 113 nM
- TGI (HCT-15 colon): 302 nM
- GI50 (M14 melanoma): 60.5 nM
- TGI (M14 melanoma): 121 nM
- GI50 (RPMI-8226 leukemia): 615 nM
- TGI (RPMI-8226 leukemia): 1900 nM
- GI50 (SW-620 colon): 120 nM
- TGI (SW-620 colon): 387 nM
- GI50 (OVCAR-3 ovarian): 76.8 nM
- TGI (OVCAR-3 ovarian): 280 nM
- GI50 (DU-145 prostate): 56.8 nM
- TGI (DU-145 prostate): 102 nM
- GI50 (IGROV1 ovarian): 521 nM
- TGI (IGROV1 ovarian): 1340 nM
- GI50 (A549 NSCLC): 565 nM
- TGI (A549 NSCLC): 1240 nM
- GI50 (CCRF-CEM leukemia): 460 nM
- TGI (CCRF-CEM leukemia): > 100000 nM
- GI50 (SNB-19 CNS): 163 nM
- TGI (SNB-19 CNS): 345 nM
- GI50 (NCI-H226 lung): 554 nM
- TGI (NCI-H226 lung): 1050 nM
